Assays:
[1] = test system: norepinephrine-enriched chromaffin cells; experiment: Staining norepinephrine-enriched chromaffin cells with Sensor IIb; format: cell-based; settings: 0.25 μM, 15 minutes, 37 C, confocal microscopy; compared with epinephrine-enriched cells
Excerpt: (§1) The adrenal medulla contains two types of chromaffin cells; those that primarily contain norepinephrine within vesicles and those that primarily contain epinephrine. The two types of cells can be separated upon high-speed centrifugation in a Percoll density gradient. Following centrifugation, the less-dense norepinephrine enriched cells can be collected from the top of the gradient, whereas the denser epinephrine-enriched cells settle to the bottom.
(§2) Following centrifugation of adrenal medullary cells in a Percoll density gradient, the less-dense norepinephrine enriched cells were collected from the top of the gradient, whereas the denser epinephrine-enriched cells were collected from the bottom of the gradient. Both collections of cells were incubated for 15 minutes at 37 C in 0.25 μM IIb dissolved in cell culture media. The cells were then washed in dye-free media and observed using a confocal microscope at room temperature.
(§3) Because it is possible to separate chromaffin cells into populations which contain epinephrine and norepinephrine, these cells were used to test sensor 76.

[2] = test system: epinephrine-enriched chromaffin cells; experiment: Staining epinephrine-enriched chromaffin cells with Sensor IIb; format: cell-based; settings: identical conditions as norepinephrine cells
Excerpt: as §1, §2, §3

`CN(CCCSc1c(C=O)c(=O)n(Cc2ccccc2)c2cc(N(C)C)ccc12)Cc1ccccc1B(O)O` [Sensor IIb] was tested, and the “staining of norepinephrine-enriched cells” value [1] was “stained brightly” and the “staining of epinephrine-containing cells” value [2] was “did not stain well”.

From patent US7977120B2, “Fluorescent sensors for cellular amines” (The Curators of the University of Missouri, priority 2005, dated 2011)
